Here are results for three molecules from patent US20050282743A1, “Molecular interactions in cells” (Arbor Vita Corporation, priority 2001, published 2005).

Ends that are not written are not given here. Peptide text beside a SMILES is read from it. * marks the point of attachment. Biotin = O=C1N[C@H]2[C@H](CS[C@H]2CCCCC(=O)*)N1

Assay [1] concerns the target T1, PDZ protein (GST-PDZ fusion) (Homo sapiens, UniProt P53667).
T1 construct: made in house; host or cells: E. coli (DH5alpha, BL21 or JM109)
Description: G' assay (10 uM PL peptide), results of TABLE 7 and TABLE 12. The following applies: PDZ LIMK1, PDZ Domain 1. Type of assay: binding. The method in brief:
(§1)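 Binding classes derive from A450 nm of bound biotin-tagged PL peptide. A score of 5 needs A450 above 4 in more than two repeats.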

Assay [2] deals with T2, PDZ protein (GST-PDZ fusion) (Homo sapiens, UniProt Q9ULD6).
T2 construct: made in house; host or cells: E. coli (DH5alpha, BL21 or JM109)
T2 sequence (Q9ULD6 1-942): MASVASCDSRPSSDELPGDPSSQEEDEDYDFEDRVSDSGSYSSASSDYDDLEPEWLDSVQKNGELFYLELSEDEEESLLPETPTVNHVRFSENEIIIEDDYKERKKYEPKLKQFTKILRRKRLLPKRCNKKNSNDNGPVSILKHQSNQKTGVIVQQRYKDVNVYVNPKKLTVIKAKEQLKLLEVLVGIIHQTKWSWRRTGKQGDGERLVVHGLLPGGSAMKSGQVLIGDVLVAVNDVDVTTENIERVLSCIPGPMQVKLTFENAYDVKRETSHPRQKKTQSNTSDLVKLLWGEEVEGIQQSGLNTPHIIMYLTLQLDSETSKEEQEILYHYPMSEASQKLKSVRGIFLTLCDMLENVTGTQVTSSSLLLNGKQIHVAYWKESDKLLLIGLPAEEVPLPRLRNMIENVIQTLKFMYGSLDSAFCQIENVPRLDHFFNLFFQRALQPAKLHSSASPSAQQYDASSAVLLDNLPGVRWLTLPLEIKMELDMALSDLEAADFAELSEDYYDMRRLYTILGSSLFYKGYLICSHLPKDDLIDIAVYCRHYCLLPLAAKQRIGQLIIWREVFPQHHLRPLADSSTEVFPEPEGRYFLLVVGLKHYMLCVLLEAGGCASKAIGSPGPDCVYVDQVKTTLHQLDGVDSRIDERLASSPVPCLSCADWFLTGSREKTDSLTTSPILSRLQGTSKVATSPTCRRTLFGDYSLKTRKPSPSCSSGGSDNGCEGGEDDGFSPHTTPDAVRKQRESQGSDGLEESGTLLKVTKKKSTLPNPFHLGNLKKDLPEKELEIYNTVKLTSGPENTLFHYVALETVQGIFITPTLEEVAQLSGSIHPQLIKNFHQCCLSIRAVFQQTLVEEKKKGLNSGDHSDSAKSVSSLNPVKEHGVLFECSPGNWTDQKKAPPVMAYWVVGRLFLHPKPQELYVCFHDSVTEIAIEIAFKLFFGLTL
The description is as above. Type of assay: binding. The following applies: PDZ KIAA1284, PDZ Domain 1. The method in brief: as §1

T1 sequence (P53667 whole entry, the tested form may be a part): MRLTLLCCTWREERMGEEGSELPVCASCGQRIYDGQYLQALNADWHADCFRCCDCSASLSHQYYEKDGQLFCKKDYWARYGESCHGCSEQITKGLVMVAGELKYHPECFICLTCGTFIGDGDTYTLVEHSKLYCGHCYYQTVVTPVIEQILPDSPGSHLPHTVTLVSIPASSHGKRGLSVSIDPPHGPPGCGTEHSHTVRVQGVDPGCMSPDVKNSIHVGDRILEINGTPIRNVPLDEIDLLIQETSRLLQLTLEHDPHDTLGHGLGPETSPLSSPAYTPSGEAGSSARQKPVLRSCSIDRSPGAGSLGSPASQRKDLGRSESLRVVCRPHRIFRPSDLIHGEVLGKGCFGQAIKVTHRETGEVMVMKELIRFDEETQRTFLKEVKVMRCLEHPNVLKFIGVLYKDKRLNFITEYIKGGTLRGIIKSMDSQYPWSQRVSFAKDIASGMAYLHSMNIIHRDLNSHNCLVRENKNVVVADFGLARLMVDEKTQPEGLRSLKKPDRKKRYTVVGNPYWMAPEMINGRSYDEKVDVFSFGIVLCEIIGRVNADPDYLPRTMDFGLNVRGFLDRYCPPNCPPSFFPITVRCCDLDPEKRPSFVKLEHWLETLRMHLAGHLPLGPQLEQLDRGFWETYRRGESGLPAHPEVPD

Regarding `CSCC[C@H](NC(=O)[C@H](C)NC(=O)[C@H](CCCNC(=N)N)NC(=O)CNC(=O)[C@@H](NC(=O)[C@H](Cc1c[nH]c2ccccc12)NC(=O)[C@H](CCCNC(=N)N)NC(=O)CNC(=O)CCCC[C@@H]1SC[C@@H]2NC(=O)N[C@@H]21)[C@@H](C)O)C(=O)N[C@@H](CO)C(=O)N[C@@H](C)C(=O)N[C@@H](Cc1c[nH]c2ccccc12)C(=O)N[C@@H](CCCCN)C(=O)N1CCC[C@H]1C(=O)N[C@H](C(=O)N[C@@H](CCCNC(=N)N)C(=O)N[C@@H](CCCNC(=N)N)C(=O)N[C@@H](CCC(=O)O)C(=O)N[C@H](C(=O)N[C@@H](CCC(=O)O)C(=O)N[C@H](C(=O)O)C(C)C)[C@@H](C)O)[C@@H](C)O` [HPV E6 #35 (modified)] (Biotin-GRWTGRAMSAWKPTRRETEV-OH; C-terminus assumed), the Classification in assay [1] and in assay [2] was 1 (A450 nm 0-1) each time.
With “A2AA_HUMAN (modified) (Biotin-HDFRRAFKKILARGDRKRIV; not fully specified)”, the Classification in assay [2] was 1 (A450 nm 0-1).
Consider `CC[C@H](C)[C@H](NC(=O)[C@H](CCC(N)=O)NC(=O)CCCC[C@@H]1SC[C@@H]2NC(=O)N[C@@H]21)C(=O)N[C@@H](CO)C(=O)N1CCC[C@H]1C(=O)NCC(=O)NCC(=O)N[C@@H](CC(C)C)C(=O)N[C@@H](CCC(=O)O)C(=O)N1CCC[C@H]1C(=O)N1CCC[C@H]1C(=O)N[C@@H](CO)C(=O)N[C@@H](CCC(=O)O)C(=O)N[C@@H](CCCCN)C(=O)N[C@@H](Cc1c[nH]cn1)C(=O)N[C@@H](Cc1ccccc1)C(=O)N[C@@H](CCCNC(=N)N)C(=O)N[C@@H](CCC(=O)O)C(=O)N[C@H](C(=O)N[C@@H](CCC(=O)O)C(=O)N[C@H](C(=O)O)C(C)C)[C@@H](C)O` [Tax], for which the Classification in assay [1] is 1 (A450 nm 0-1).
